Data taken from ChEMBL document CHEMBL1201862, “PubChem BioAssay data set” (2004).
Active and inactive are the calls of the source.

Columns and labels:
[1] = target: T1, Endoribonuclease toxin MazF (Escherichia coli K-12, UniProt P0AE70); experiment: substrate-only fluorescence increase artefacts – biochemical, single-stranded RNase substrate, counter-screen for MazEF activator project, dose response (AID 588502); assay type: functional
T1 sequence (P0AE70 whole entry): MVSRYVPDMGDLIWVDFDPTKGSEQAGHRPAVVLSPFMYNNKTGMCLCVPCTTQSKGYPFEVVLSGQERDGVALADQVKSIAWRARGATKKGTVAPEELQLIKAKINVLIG

MEF = experiment: SAR analysis of small molecule cytotoxicity of MazEF TA System activators in embryonic fibroblast (MEF) cells. [Related pubchem assays (depositor defined):AID504720, AID504743]; assay type: functional; conditions: Mus musculus
[2] = target: T1, Endoribonuclease toxin MazF; experiment: SAR analysis of small molecule activators of the MazEF TA System via a fluorescence-based single-stranded RNase assay counterscreen. [Related pubchem assays (depositor defined):AID504720, AID504743]; assay type: functional
[3] = target: T1, Endoribonuclease toxin MazF; experiment: MazEF toxin-antitoxin RNase activation – biochemical, fluorescence, single-stranded RNA substrate, SAR follow-up (AID 588603); assay type: functional
[4] = target: T1, Endoribonuclease toxin MazF; experiment: activation of MazEF endoribonuclease cleavage – biochemical, fluorescence, single-stranded RNA substrate, uHTS hits, dose response (AID 588481); assay type: functional
[5] = target: T2, High affinity choline transporter 1 (Homo sapiens, UniProt Q9GZV3); experiment: human choline transporter potentiators, potency – cell-based, 10-point CRC, membrane potential dye, dose response (AID 602376); assay type: functional
T2 sequence (Q9GZV3 whole entry): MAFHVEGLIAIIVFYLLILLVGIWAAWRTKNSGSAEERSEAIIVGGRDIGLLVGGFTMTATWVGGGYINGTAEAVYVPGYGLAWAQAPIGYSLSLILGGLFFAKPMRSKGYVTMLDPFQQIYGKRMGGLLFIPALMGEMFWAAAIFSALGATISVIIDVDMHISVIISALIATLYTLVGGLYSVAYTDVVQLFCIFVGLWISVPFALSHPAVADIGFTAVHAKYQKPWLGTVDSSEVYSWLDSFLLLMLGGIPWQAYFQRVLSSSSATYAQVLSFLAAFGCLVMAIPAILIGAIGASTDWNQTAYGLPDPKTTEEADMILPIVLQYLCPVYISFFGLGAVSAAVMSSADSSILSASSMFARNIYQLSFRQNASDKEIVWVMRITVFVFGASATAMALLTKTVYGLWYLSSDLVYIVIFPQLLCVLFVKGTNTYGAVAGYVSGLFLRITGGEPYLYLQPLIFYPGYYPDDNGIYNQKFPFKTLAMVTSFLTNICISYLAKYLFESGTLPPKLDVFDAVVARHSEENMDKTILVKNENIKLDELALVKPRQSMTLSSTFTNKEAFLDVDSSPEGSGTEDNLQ

H4 = experiment: Luminescence Cell-Based Dose Response HTS to Identify Activators of 5'UTR Stem-Loop Driven Prion Protein mRNA Translation in H4 Neuroglioblastoma Cells. [Related pubchem assays: 1829 (Project Summary), 1814 (Primary HTS)]; assay type: functional; conditions: Homo sapiens
[6] = Luminescence Cell-Based Dose Response HTS to Identify Activators of Luciferase Translation or Activity in H4 […] Cells. [Related pubchem assays: 1829 (Project Summary), 1814 (Primary HTS)]; assay type: functional
[7] = target: Benomyl/methotrexate resistance protein (Candida albicans, UniProt P28873); experiment: Candida albicans Mdr1 pump blockade titration – singleplex, Cherry Pick2 set, dose response (AID 623992); assay type: functional; conditions: read-out: EC50_MICROM
Candida albicans [8] = experiment: fluconazole-resistant Candida strain growth inhibitors – CaCi-8 strain, dry powder, set 4, dose response (AID 488950); assay type: functional, organism-based
Candida albicans [9] = experiment: resistant Candida growth with fluconazole co-treatment – CaCi-8 strain, Alamar Blue, dry powder, set 2, dose response (AID 488909); assay type: functional, organism-based
Candida albicans [10] = experiment: C. albicans growth inhibition with fluconazole – CaCi-2 strain, Alamar Blue, dry powder, set 4, dose response (AID 488943); assay type: functional, organism-based
Candida albicans [11] = experiment: Candida growth reduction in fluconazole presence – CaCi-2 strain, Alamar Blue, dry powder, set 2, antifungal resistance reversal project, dose response (AID 488930); assay type: functional, organism-based
HEK293 [12] = experiment: HEK293T cell viability loss, resazurin readout – resazurin fluorescence, cytotoxicity control for NF-kB activator project, SAR follow-up (AID 493251); assay type: functional, cell-based; conditions: Homo sapiens
HEK293 [13] = experiment: SAR Analysis of small molecule inhibitors of T-cell specific antigen receptor-induced NF-kB activation in a HEK-293T cell line using a luminescence assay - Set 2. [Related pubchem assays (depositor defined):AID435003, AID435012, AID489026]; assay type: functional, cell-based; conditions: Homo sapiens
Jurkat = experiment: SAR Analysis of small molecule inhibitors of T-cell specific antigen receptor-induced NF-kB activation in a Jurkat cell line using a luminescence assay - Set 2. [Related pubchem assays (depositor defined):AID435003, AID435012, AID465]; assay type: functional, cell-based; conditions: Homo sapiens

Sequence of Benomyl/methotrexate resistance protein (P28873 whole entry): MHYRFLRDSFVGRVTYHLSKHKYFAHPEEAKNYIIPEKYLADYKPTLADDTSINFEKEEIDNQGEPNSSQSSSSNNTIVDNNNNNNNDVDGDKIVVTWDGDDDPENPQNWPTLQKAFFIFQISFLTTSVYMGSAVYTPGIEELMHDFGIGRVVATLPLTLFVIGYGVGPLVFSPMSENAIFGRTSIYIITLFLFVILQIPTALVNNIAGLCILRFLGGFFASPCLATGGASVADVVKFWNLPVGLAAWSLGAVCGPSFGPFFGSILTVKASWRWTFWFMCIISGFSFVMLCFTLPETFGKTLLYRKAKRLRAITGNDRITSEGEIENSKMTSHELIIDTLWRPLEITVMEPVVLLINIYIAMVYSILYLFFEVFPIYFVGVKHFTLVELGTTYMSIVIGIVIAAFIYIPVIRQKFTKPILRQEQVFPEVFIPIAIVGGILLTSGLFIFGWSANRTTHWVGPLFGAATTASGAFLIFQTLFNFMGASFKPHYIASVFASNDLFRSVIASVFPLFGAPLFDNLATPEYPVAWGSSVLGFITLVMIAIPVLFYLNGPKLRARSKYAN

## O=C1c2ccccc2C(Nc2ccc(S(=O)(=O)N3CCCCCC3)cc2)N1c1ccccn1 (stereo unspecified)
[1]
  EC50: > 99 µM (inactive)
MEF
  CC50: > 99 µM (inactive)
[2]
  EC50: > 99 µM (inactive)
[3]
  EC50: 19.3 µM (active)
[4]
  EC50: 16.1 µM (active)

## CCC1=[N+](CC(=O)c2ccc(C)cc2)CCn2c(C)ccc21
[5]
  EC50: 13 µM (active)
H4
  EC50: 28.3 µM (active)
[6]
  EC50: > 120 µM (not active)

## O=C(/C=C/c1cccs1)N1CCC2(CC1)Oc1ccc(F)cc1C(=O)C21CC(c2ccccc2)=NO1 (stereo unspecified)
[7]
  EC50: 29.7 µM (active)

## O=C(c1ccc(Cl)cc1)N1CCN(c2ccnc3ccc(Cl)cc23)CC1
Candida albicans [8]
  AC50: 1.47 µM (active)
Candida albicans [9]
  AC50: 9.92 µM (active)
Candida albicans [10]
  AC50: 0.397 µM (active)
Candida albicans [11]
  AC50: < 0.8 µM (active)

## N#Cc1cccc(NC(=O)c2ccc([N+](=O)[O-])o2)c1
HEK293 [12]
  IC50: 57.4 µM (inactive)
HEK293 [13]
  IC50: 32.9 µM (inactive)
Jurkat
  IC50: 18.1 µM (active)
